From paper PMC3081360 (Journal of medicinal chemistry, 2011)

Molecular target: brain NOP receptors (hypothalamus vs striatum) (Rattus norvegicus, UniProt P35370)
Assay: Ligand brain uptake in rat, ex vivo LC-MS/MS
Conditions: 3 μg/kg i.v., non-anesthetized, 10 min stated for (S)-10a

brain NOP receptors (hypothalamus vs striatum), sequence (P35370 whole entry): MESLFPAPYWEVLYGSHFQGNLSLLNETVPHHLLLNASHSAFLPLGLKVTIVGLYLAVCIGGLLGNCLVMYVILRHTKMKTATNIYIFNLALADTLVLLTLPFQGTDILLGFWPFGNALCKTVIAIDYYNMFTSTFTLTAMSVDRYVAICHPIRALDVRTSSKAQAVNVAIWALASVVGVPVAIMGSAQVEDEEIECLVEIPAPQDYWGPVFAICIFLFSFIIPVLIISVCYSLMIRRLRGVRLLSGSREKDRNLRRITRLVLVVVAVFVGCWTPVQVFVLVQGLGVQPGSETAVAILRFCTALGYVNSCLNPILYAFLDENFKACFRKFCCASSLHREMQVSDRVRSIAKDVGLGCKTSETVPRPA

| Compound | brain uptake |
| --- | --- |
| CNC(=O)[C@@H](Cc1ccccc1F)CN1CCC2(CC1)OCCc1cc(F)sc12 [(S)-10c, (2S)-2-[(2-Fluorophenyl)methyl]-3-(2-fluorospiro[4,5-dihydrothieno[2,3-c]pyran-7,4'-piperidine]-1'-yl)-N-methyl-propanamide] | ~ 280 % SUV |
| CNC(=O)[C@@H](Cc1ccccc1Cl)CN1CCC2(CC1)OCCc1cc(F)sc12 [(S)-10b, (2S)-2-[(2-Chlorophenyl)methyl]-3-(2-fluorospiro[4,5-dihydrothieno[2,3-c]pyran-7,4'-piperidine]-1'-yl)-N-methyl-propanamide] | ~ 280 % SUV |
| CC(C)N(C)C(=O)[C@@H](Cc1ccccc1F)CN1CCC2(CC1)OCCc1cc(F)sc12 [(S)-10a, (2S)-2-[(2-Fluorophenyl)methyl]-3-(2-fluorospiro[4,5-dihydrothieno[2,3-c]pyran-7,4'-piperidine]-1'-yl)-N-isopropyl-N-methyl-propanamide] | 453 % SUV |
